In US11242344B2, “(4-hydroxypyrrolidin-2-yl)-heterocyclic compounds and methods of use thereof” (Genentech, Inc., priority 2017, dated 2022):

Assays:
[1] = target: NanoLuc VHL fusion protein (Homo sapiens (Human), UniProt P40337); assay: VHL HEK-293 BRET Assay (NanoBRET Target Engagement); type: cell-based; settings: geometric mean where more than one measurement
Description: The VHL NanoBRET™ Target Engagement Assay analyzes the apparent affinity of test compounds for VHL in cells by competitive displacement of a VHL NanoBRET™ tracer reversibly bound to a NanoLuc® VHL fusion protein stably expressed in the cells. Test compounds were transferred to the assay plate (384 Well White Non-Binding Corning Assay Plates (Corning-3574)) using an Echo 555 Liquid Handler (Labcyte) in 2.5 nL increments and, as appropriate, intermediate stock concentrations of compounds, in order to prepare a titration series. 50 nL of control compound (10 mM; parental unlabeled VHL antagonist; see structure below) and 50 nL of DMSO (negative control) were dispensed into the appropriate control wells. DMSO was backfilled to a final volume of 50 nL as required. 50 nl per well of 1 mM VHL NanoBRET™ Tracer in DMSO (NanoBRET™ Tracer-PEG2-590 (see structure below)) was transferred into each well using an Echo 555 (ultimately yielding a final concentration of 1 uM). HEK 293 RT VHL-NanoLuc® stable cells were cultured in DMEM High Glucose with Pyruvate, 10% fetal bovine serum, 2 mg/mL of Geneticin Selective Antibiotic (50 mg/ml) and 2 mM HEPES (1 M). Cells were seeded in Opti-MEM (Life Technologies-11058-021), 1.7×10^5 cells/mL, 40 μl per well into the assay plate, centrifuged at 500 rpm for 30 seconds and incubated for 2 hours. Max Signal control wells consisted of DMSO only treated wells. Minimum Signal control wells contained of 10 uM parental unlabeled VHL antagonist (control compound—see structure below). 3× Complete Substrate plus Inhibitor Solution was prepared in Opti-MEM (consists of a 1:166 dilution of NanoBRET™ Nano-Glo® Substrate plus a 1:500 dilution of Extracellular NanoLuc® Inhibitor in Opti-MEM), and 20 ul was dispensed into each well of the 384-well plate and centrifuged at 1000 rpm for 1 minute, then incubated for 2 minutes at room temperature. Background Signal control wells were prepared without tracer for background correction steps. Plates were read using a PerkinElmer Envision Reader (model 2104-0020) equipped with Luminescence option (Mirror: BRET2 Enh (PE Barcode 659), Emission Filter: Omega 610LP (Barcode 504), 2nd Emission Filter: Umbelliferone 460 (Barcode 207), Measurement height: 6.5 mm, Measurement time: 1 s). The raw BRET ratio values were calculated by dividing the acceptor emission value (610 nm) by the donor emission value (460 nm) for each sample. To correct for background, the BRET ratio in the absence of tracer (average of no-tracer control samples) was subtracted from the BRET ratio of each sample. Raw BRET units were converted to milliBRET units (mBU) by multiplying each raw BRET value by 1,000. The normalized NanoBRET™ signal was calculated relative to the Max Signal control wells (DMSO treated control wells) and the Minimum Signal control wells. Percentage inhibition was calculated relative to the Minimum Signal control and Maximum Signal control wells. IC50 values were derived by four parameter curve fitting using the Robust method.

VHL Elongin B/C complex = VHL Elongin B/C complex (Homo sapiens (Human), UniProt P40337); assay: Fluorescence Polarization (FP) VHL Binding Assay; settings: VHL binding, FP assay; geometric mean where more than one measurement
Chain of VHL Elongin B/C complex (P40337 whole entry, looked up, the tested form may be a part): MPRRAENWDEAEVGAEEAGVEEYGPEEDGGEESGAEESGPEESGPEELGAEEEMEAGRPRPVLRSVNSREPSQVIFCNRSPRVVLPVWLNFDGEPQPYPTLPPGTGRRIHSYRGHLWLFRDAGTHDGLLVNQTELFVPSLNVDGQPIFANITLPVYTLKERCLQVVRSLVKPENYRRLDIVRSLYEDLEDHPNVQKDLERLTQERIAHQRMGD
Chain of VHL Elongin B/C complex (Q15370 whole entry partner, looked up, the tested form may be a part): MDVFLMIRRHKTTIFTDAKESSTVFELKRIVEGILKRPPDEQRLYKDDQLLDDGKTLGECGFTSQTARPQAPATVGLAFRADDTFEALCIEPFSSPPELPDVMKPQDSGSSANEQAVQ
Chain of VHL Elongin B/C complex (Q15369 whole entry partner, looked up, the tested form may be a part): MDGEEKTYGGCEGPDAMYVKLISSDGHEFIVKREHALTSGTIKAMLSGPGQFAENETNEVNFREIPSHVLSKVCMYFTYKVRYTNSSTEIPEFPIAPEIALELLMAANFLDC
Description: The binding of test compounds to the VHL Elongin B/C complex was measured using a fluorescence polarization tracer competition assay. The VHL/Elongin B/C protein complex used in the assay was generated as follows. The coding region for amino acids E55-D213 of human VHL with N-terminal His6 tag with a TEV-protease cleavage site was co-expressed with Elongin B (residues M1-Q118) and Elongin C (Residues M17-C112) in E. coli. […] The purified VHL/Elongin B/C complex was dialyzed into formulation buffer: 20 mM Bis-Tris pH7.0, 150 mM NaCl, 1 mM DTT. A VHL fluorescence polarization probe (prepared in Example 91), consisted of a VHL ligand coupled to carboxytetramethylrhodamine (TAMRA); […] Compounds were prepared as a serial dilution in DMSO at a concentration 25-fold higher than the final desired concentration and acoustically dispensed (400 nl) into a ProxiPlate-384 Plus F, Black 384-shallow well Microplate (Part Number 6008260). DMSO was dispensed into wells designated for “VHL control” (without compound) wells. The “Assay Buffer” consisted of 50 mM Tris pH 8.0, 120 mM NaCl, 0.005% Nonidet P-40, and 1% DMSO (v/v). Assay Buffer containing […] VHL Elongin B/C complex was prepared and 5 μl dispensed using a BioRapTR (Beckman Coulter) into each well of the assay plate. Assay Buffer was also dispensed into “no VHL control” wells using the same method. A “pre-assay” fluorescence measurement was made using an Infinite® M1000 (Tecan) plate reader (Excitation 530 nm, Emission 574 nm, Bandwidth 10 nm). Assay Buffer containing 3.34 nM of the VHL FP probe was prepared in Assay Buffer and 5 μl dispensed into each well of the assay plate using a BioRapTR (Beckman Coulter). The final VHL/Elongin B/C protein concentration is 2.64 nM and the final probe concentration is 1.67 nM. Assay plates were briefly centrifuged and incubated for 1 hour at room temperature. “Post-assay” fluorescence polarization measurements were made as described for the “pre-assay” fluorescence measurement. Fluorescence polarization was calculated for each sample; taking into account the “pre-assay” fluorescence measurements and subtracting the fluorescence signal of the compound/VHL only (“pre-assay”) measurements from the “post-assay” fluorescence polarization measurements, for each plane of polarization. The data were analyzed using Genedata Screener software and normalized to the “no VHL control” and “VHL control” (without compound). IC50 values were calculated using a four parameter curve fit (Robust method).

[2] = target: VHL co-expressed with Elongins B and C (Homo sapiens (Human), UniProt P40337); assay: Surface Plasmon Resonance Assay; type: binding; settings: SPR measured VHL affinity; geometric mean where more than one measurement
Chain of VHL co-expressed with Elongins B and C (P40337 whole entry, looked up): as the sequence (P40337 whole entry, looked up, the tested form may be a part) above
Chain of VHL co-expressed with Elongins B and C (Q15370 whole entry partner, looked up): as the sequence (Q15370 whole entry partner, looked up, the tested form may be a part) above
Chain of VHL co-expressed with Elongins B and C (Q15369 whole entry partner, looked up): as the sequence (Q15369 whole entry partner, looked up, the tested form may be a part) above
Description: Using a Biacore T200, […] tagged VHL co-expressed with Elongins B and C were immobilized to a Biacore SA chip in running buffer without DMSO. Compounds were tested individually at varying concentrations in running buffer (50 mM HEPES pH 7.2, 150 mM NaCl, 0.5 mM TCEP, 0.001% Tween 20, 0.2% PEG3350, 2% DMSO) at 20° C. Sensorgrams were run in order from low to high concentration using a flow rate of 80 μL/min. Association and disassociation times were varied depending on the estimated potency of the compound tested. […] Galdeano et al, J. Med. Chem. 2014, 57, 8657-8663, herein incorporated by reference) which retained greater than 75% of the activity over the course of the run. Analysis of the binding curves and determination of the kinetic parameters were done using evaluation software (Version 2.0, Biacore).

Chain of NanoLuc VHL fusion protein (P40337 whole entry, looked up, the tested form may be a part): as the sequence (P40337 whole entry, looked up, the tested form may be a part) above
Chain of NanoLuc VHL fusion protein (Q15370 whole entry partner, looked up, the tested form may be a part): as the sequence (Q15370 whole entry partner, looked up, the tested form may be a part) above
Chain of NanoLuc VHL fusion protein (Q15369 whole entry partner, looked up, the tested form may be a part): as the sequence (Q15369 whole entry partner, looked up, the tested form may be a part) above

SMILES	IC50 [1]	IC50 (VHL Elongin B/C complex)	Kd [2]
Cc1cc(C(C(=O)N2C[C@H](O)C[C@H]2C2=NO[C@](C)(c3ccc(-c4ccccc4F)cc3)N2)C(C)C)on1 (single isomer, unassigned) [Example 139.2]	0.0678 µM	0.0628 µM	–
Cc1ncsc1-c1ccc([C@]2(C)NC(C3C[C@@H](O)CN3C(=O)[C@@H](NC(=O)C3(C#N)CC3)C(C)(C)C)=NC2=O)cc1 (single isomer, unassigned) [Example 111.2]	5.11 µM	4.97 µM	1.86 µM
C#Cc1cccc(Nc2ncnc3cc(OCCOC)c(OCCOCC#CC#CCOc4cc(C(C(=O)N5C[C@H](O)CC5C5=NC(=O)[C@](C)(c6ccc(-c7scnc7C)cc6)N5)C(C)C)on4)cc23)c1 (single isomer, unassigned) [Example 1004.3]	≥ 100 µM	75.8 µM	–
Cc1noc(C(C(=O)N2C[C@H](O)CC2C2=NC(=O)[C@](C)(c3ccc(-c4scnc4C)cc3)N2)C(C)C)n1 (single isomer, unassigned) [Example 117.2]	1.9 µM	1.62 µM	0.625 µM
Cc1cc(C(C(=O)N2C[C@H](O)CC2C2=NS(=O)(=O)CN2)C(C)C)on1 (single isomer, unassigned) [Example 137.1]	≥ 100 µM	≥ 400 µM	–
Cc1cc([C@@H](C(=O)N2C[C@H](O)C[C@H]2C2=NOC3(CCCC3)N2)C(C)C)on1 [Example 127.1, (S)-1-((2S,4R)-4-hydroxy-2-(1-oxa-2,4-diazaspiro[4.4]non-2-en-3-yl)pyrrolidin-1-yl)-3-methyl-2-(3-methylisoxazol-5-yl)butan-1-one]	100 µM	≥ 400 µM	≥ 150 µM
CC/C(=C(\c1ccc(O)cc1)c1ccc(OCCN(C)C(=O)CCCOCCOc2cc(C(C(=O)N3C[C@H](O)CC3C3=NC(=O)[C@](C)(c4ccc(-c5scnc5C)cc4)N3)C(C)C)on2)cc1)c1ccccc1 (single isomer, unassigned) [Example 1003.4]	≥ 100 µM	≥ 100 µM	67.1 µM
Cc1cc([C@@H](C(=O)N2C[C@H](O)C[C@H]2C2=NOC(c3ccccc3)(c3ccccc3)N2)C(C)C)on1 [Example 132.1, (S)-1-((2S,4R)-2-(5,5-diphenyl-4,5-dihydro-1,2,4-oxadiazol-3-yl)-4-hydroxypyrrolidin-1-yl)-3-methyl-2-(3-methylisoxazol-5-yl)butan-1-one]	100 µM	≥ 400 µM	≥ 150 µM
Cc1cc(C(C(=O)N2C[C@H](O)C[C@H]2C2=NN(CC(F)(F)F)C(C)(C)N2)C(C)C)on1 (single isomer, unassigned) [Example 134.2]	41.3 µM	48.2 µM	57.4 µM
Cc1noc(C(C(=O)N2C[C@H](O)CC2C2=NC(=O)[C@](C)(c3ccc(-c4scnc4C)cc3)N2)C(C)C)n1 (single isomer, unassigned) [Example 117.1]	100 µM	≥ 400 µM	155 µM
Cc1cc([C@H](C(=O)N2C[C@H](O)C[C@H]2C2=NOC(C)(c3ccc(-c4scnc4C)cc3)N2)C(C)C)on1 (single isomer, unassigned) [Example 129.4]	0.239 µM	0.202 µM	0.0438 µM
Cc1cc(C(C(=O)N2C[C@H](O)CC2C2=NS(=O)(=O)CN2)C(C)C)on1 (single isomer, unassigned) [Example 137.2]	≥ 100 µM	47.3 µM	–
C#Cc1cccc(Nc2ncnc3cc(OCCOC)c(OCCOCC#CC#CCOc4cc(C(C(=O)N5C[C@H](O)CC5C5=NC(=O)[C@](C)(c6ccc(-c7scnc7C)cc6)N5)C(C)C)on4)cc23)c1 (single isomer, unassigned) [Example 1004.1]	68.3 µM	6.25 µM	–
Cc1cc([C@H](C(=O)N2C[C@H](O)CC2C2=NOC3(CCCc4ccccc43)N2)C(C)C)on1 (single isomer, unassigned) [Example 131.4]	20 µM	19.9 µM	–
Cc1cc([C@H](C(=O)N2C[C@H](O)CC2C2=NOC3(CCCc4ccccc43)N2)C(C)C)on1 (single isomer, unassigned) [Example 131.3]	23 µM	19.6 µM	–
Cc1cc([C@@H](C(=O)N2C[C@H](O)CC2C2=NOC3(CCCc4ccccc43)N2)C(C)C)on1 (single isomer, unassigned) [Example 131.1]	100 µM	160 µM	–
C#Cc1cccc(Nc2ncnc3cc(OCCOC)c(OCCOCC#CC#CCOc4cc(C(C(=O)N5C[C@H](O)CC5C5=NC(=O)[C@](C)(c6ccc(-c7scnc7C)cc6)N5)C(C)C)on4)cc23)c1 (single isomer, unassigned) [Example 1004.4]	≥ 100 µM	6.25 µM	–
Cc1cc([C@@H](C(=O)N2C[C@H](O)CC2C2=NOC3(CCCc4ccccc43)N2)C(C)C)on1 (single isomer, unassigned) [Example 131.2]	100 µM	242 µM	–
Cc1cc(C(C(=O)N2C[C@H](O)CC2C2=NS(=O)(=O)CN2)C(C)C)on1 (single isomer, unassigned) [Example 137.3]	≥ 100 µM	≥ 400 µM	–
Cc1cc(C(C(=O)N2C[C@H](O)C[C@H]2C2=NO[C@](C)(c3ccc(-c4ccccc4F)cc3)N2)C(C)C)on1 (single isomer, unassigned) [Example 139.1]	21.7 µM	10 µM	–
C#Cc1cccc(Nc2ncnc3cc(OCCOC)c(OCCOCC#CC#CCOc4cc(C(C(=O)N5C[C@H](O)CC5C5=NC(=O)[C@](C)(c6ccc(-c7scnc7C)cc6)N5)C(C)C)on4)cc23)c1 (single isomer, unassigned) [Example 1004.2]	46.4 µM	75.8 µM	–
